Assay results taken from patent publication US10676429B2, “Sulfamoyl-arylamides and the use thereof as medicaments for the treatment of hepatitis B” (priority 2012, dated 2020).

How the values were obtained:
HBV [1] = test: Anti-HBV activity in stable transfected HepG2.2.15 cell line (HBV DNA from secreted virions, realtime PCR); format: cell-based; conditions: Hepatitis B virus, HepG2.2.15, 144 h, HepG2.2.15 cells, 6 days of treatment, secreted virion HBV DNA; read-out: HepG2 2.15 EC50
HBV [2] = test: Anti-HBV activity in HepG2.117 cell line (Tet-off, intracellular HBV DNA, realtime PCR); format: cell-based; conditions: Hepatitis B virus, HepG2.117, 72 h, HepG2.117 cells, 3 days of treatment, intracellular HBV DNA; read-out: HepG2 117 EC50
[3] = Cytotoxicity in HepG2 cells, 4 days, Resazurin assay; conditions: human, HepG2 cells

SMILES	EC50 (HBV [1]) [nM]	EC50 (HBV [2]) [nM]	CC50 at 4 days [3] [µM]
COc1ccc(NC(=O)c2cccc(S(=O)(=O)N[C@H]3CCOC3)c2)cc1C [Compound 107]	7820	13800	> 25
CC1(NS(=O)(=O)c2cccc(C(=O)Nc3ccc(F)c(O)c3)c2)COC1 [Compound 108]	7200	9270	> 25
COc1cc(NC(=O)c2cccc(S(=O)(=O)NC3(C)COC3)c2)ccc1F [Compound 109]	1230	2530	> 25
C=Cc1cc(NC(=O)c2cccc(S(=O)(=O)NC3(C)COC3)c2)ccc1F [Compound 110]	660	850	> 25
CC1(NS(=O)(=O)c2cccc(C(=O)Nc3ccc(F)c(CO)c3)c2)COC1 [Compound 111]	4480	1480	> 25
Cc1cc(NC(=O)c2cccc(S(=O)(=O)N[C@H]3CCOC3)c2F)ccc1F [Compound 112]	30	140	> 25
Cc1ccc(S(=O)(=O)NC2(C)COC2)cc1C(=O)Nc1ccc(F)c(C(F)F)c1 [Compound 113]	150	180	> 25
COc1ccc(NC(=O)c2cccc(S(=O)(=O)NC(C)C)c2)cc1F [Compound 114]	1350	3150	> 25
Cc1cc(NC(=O)c2cccc(S(=O)(=O)NC(C)CN3CCN(C)CC3)c2)ccc1F (stereo not drawn) [Compound 116]	1940	900	> 25
Cc1cc(NC(=O)c2cccc(S(=O)(=O)NC(C)CN3CCOCC3)c2)ccc1F (stereo not drawn) [Compound 117]	880	500	> 25
Cc1cc(NC(=O)c2cccc(S(=O)(=O)NC(C)Cc3ccccn3)c2)ccc1F (stereo not drawn) [Compound 120]	530	510	> 25
Cc1cc(NC(=O)c2cc(S(=O)(=O)N[C@H]3CCOC3)ccc2C)ccc1F [Compound 121]	160	130	> 25
Cc1cc(NC(=O)c2cc(S(=O)(=O)NC3(C)COC3)ccc2C)ccc1F [Compound 122]	130	180	> 25
Cc1cc(NC(=O)c2cc(Cl)cc(S(=O)(=O)N[C@H]3CCOC3)c2F)ccc1F [Compound 123]	150	300	> 25
Cc1cc(NC(=O)c2cccc(S(=O)(=O)N[C@H]3CCOC3)c2Cl)ccc1F [Compound 124]	330	680	> 25
Cc1cc(NC(=O)c2c(Cl)ccc(S(=O)(=O)N[C@H]3CCOC3)c2Cl)ccc1F [Compound 125]	1440	1150	> 25
Cc1cc(NC(=O)c2cccc(S(=O)(=O)N[C@H]3CCOC3)c2C)ccc1F [Compound 126]	1380	890	> 25
CC1(NS(=O)(=O)c2cccc(C(=O)Nc3ccc(F)c(CF)c3)c2)COC1 [Compound 127]	230	580	> 25
Cc1cc(NC(=O)c2cccc(S(=O)(=O)NC3CC4CCC3O4)c2)ccc1F (stereo not drawn) [Compound 128]	230	540	> 25
Cc1cc(NC(=O)c2cccc(S(=O)(=O)N[C@@H]3CCOC3)c2)ccc1F [Compound 129]	350	780	> 25
Cc1cc(NC(=O)c2cccc(S(=O)(=O)N[C@H]3CCCC[C@@H]3O)c2)ccc1F [Compound 131]	2630	1740	> 25
Cc1cc(NC(=O)c2cccc(S(=O)(=O)N[C@H]3CC[C@H](O)CC3)c2)ccc1F [Compound 133]	600	1690	> 25
Cc1cc(NC(=O)c2cccc(S(=O)(=O)N3CC4(COC4)C3)c2)ccc1F [Compound 135]	560	360	> 25
Cc1cc(NC(=O)c2cccc(S(=O)(=O)N[C@@H]3c4ccccc4C[C@@H]3O)c2)ccc1F [Compound 136]	470	810	> 25
Cc1cc(NC(=O)c2cccc(S(=O)(=O)N[C@@H]3CCc4ccccc4[C@@H]3O)c2)ccc1F [Compound 137]	660	920	23.7
Cc1cc(NC(=O)c2cccc(S(=O)(=O)N[C@H]3CCC[C@@H]3O)c2)ccc1F [Compound 138]	1280	2270	> 25
Cc1cc(NC(=O)c2cccc(S(=O)(=O)N[C@H]3CCC[C@H]3O)c2)ccc1F [Compound 139]	1000	1750	> 25

SMILES	EC50 (HBV [1]) [nM]	EC50 (HBV [2]) [nM]	CC50 at 4 days [3] [µM]
Cc1cc(NC(=O)c2cccc(S(=O)(=O)NC3CCS(=O)(=O)C3)c2)ccc1F (stereo not drawn) [Compound 140]	1100	1120	> 25
Cc1cc(NC(=O)c2cccc(S(=O)(=O)NC3Cc4ccccc4C3O)c2)ccc1F (stereo not drawn) [Compound 141]	360	600	> 25
Cc1cc(NC(=O)c2cccc(S(=O)(=O)N[C@H](C)[C@H](O)c3ccccc3)c2)ccc1F [Compound 142]	140	560	> 25
Cc1cc(NC(=O)c2cccc(S(=O)(=O)N[C@@H](C)[C@H](O)c3ccccc3)c2)ccc1F [Compound 143]	910	2660	> 25
Cc1cc(NC(=O)c2cccc(S(=O)(=O)N[C@H](C)[C@@H](O)c3ccccc3)c2)ccc1F [Compound 144]	130	240	> 25
Cc1cc(NC(=O)c2cccc(S(=O)(=O)NC3CCC(O)C3)c2)ccc1F (stereo not drawn) [Compound 145]	220	270	> 25
Cc1cc(NC(=O)c2cccc(S(=O)(=O)N3CC4(CCOC4)C3)c2)ccc1F [Compound 146]	450	420	> 25
Cc1cc(NC(=O)c2cccc(S(=O)(=O)N3CCC34COC4)c2)ccc1F [Compound 147]	260	150	> 25
Cc1cc(NC(=O)c2cccc(S(=O)(=O)N[C@@H](C)C3CCCCC3)c2)ccc1F [Compound 148]	900	3110	18.2
Cc1cc(NC(=O)c2cccc(S(=O)(=O)NC3CCC(F)(F)CC3)c2)ccc1F [Compound 149]	220	730	20.8
C=CC(C)NS(=O)(=O)c1cccc(C(=O)Nc2ccc(F)c(C)c2)c1 (stereo not drawn) [Compound 150]	100	730	> 25
Cc1cc(NC(=O)c2cccc(S(=O)(=O)N[C@@H](C)C(C)C)c2)ccc1F [Compound 151]	660	2740	> 25
Cc1cc(NC(=O)c2cccc(S(=O)(=O)N[C@H](C)C3CC3)c2)ccc1F [Compound 152]	< 100	570	> 25
Cc1cc(NC(=O)c2cccc(S(=O)(=O)NC(C)CCc3ccccc3)c2)ccc1F (stereo not drawn) [Compound 153]	220	250	> 25
Cc1cc(NC(=O)c2cccc(S(=O)(=O)NC3CCCN(C(=O)OC(C)(C)C)C3)c2)ccc1F (stereo not drawn) [Compound 155]	360	810	> 25
Cc1cc(NC(=O)c2cccc(S(=O)(=O)NC3CCN(C(=O)OC(C)(C)C)C3)c2)ccc1F (stereo not drawn) [Compound 156]	190	210	> 25
COC(=O)N1CC(C)(NS(=O)(=O)c2cccc(C(=O)Nc3ccc(F)c(C)c3)c2)C1 [Compound 157]	130	230	> 25
COC(=O)N1CCC(NS(=O)(=O)c2cccc(C(=O)Nc3ccc(F)c(C)c3)c2)C1 (stereo not drawn) [Compound 158]	150	500	> 25
CC1(NS(=O)(=O)c2cccc(C(=O)Nc3ccc(F)c(Br)c3)c2)COC1 [Compound 160, N-(3-bromo-4-fluoro-phenyl)-3-[(3-methyloxetan-3-yl)sulfamoyl]benzamide]	200	690	> 25
Cc1cc(NC(=O)c2cccc(S(=O)(=O)NC(C)c3ccncc3)c2)ccc1F (stereo not drawn) [Compound 161]	200	350	> 25
Cc1cc(NC(=O)c2cccc(S(=O)(=O)NC(C)c3cccnc3)c2)ccc1F (stereo not drawn) [Compound 162]	170	1260	> 25
Cc1cc(NC(=O)c2cccc(S(=O)(=O)NC(C)c3ccccn3)c2)ccc1F (stereo not drawn) [Compound 163]	530	8530	> 25
Cc1cc(NC(=O)c2cccc(S(=O)(=O)NC(C)C3CCN(C)CC3)c2)ccc1F (stereo not drawn) [Compound 164]	3710	970	> 25
Cc1cc(NC(=O)c2cccc(S(=O)(=O)NC(C)CCN3CCOCC3)c2)ccc1F (stereo not drawn) [Compound 165]	710	360	> 25
Cc1cc(NC(=O)c2cccc(S(=O)(=O)N[C@H](C)c3ccccc3)c2)ccc1F [Compound 166]	190	2390	14.6
Cc1cc(NC(=O)c2cccc(S(=O)(=O)N[C@@H](C)c3ccccc3)c2)ccc1F [Compound 167]	620	9840	> 25
Cc1cc(NC(=O)c2cccc(S(=O)(=O)NC3Cc4ccccc4C3)c2)ccc1F [Compound 168]	270	370	11.8
